The supplement of paper PMC11061612

How the values were obtained:
[1] = system: Becker (Low Grade Glioma); assay: Bliss excess, mean over the matrix (fraction); higher = more synergy
Summary of the method: (§1)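 After 24 hours at 37°C and 5% CO2 in 1536-well plates, cells in DMEM/F12 or RPMI plus 10% FBS received two-drug dose matrices for 72 hours. Viability came from CellTiter-Glo 2.0 luminescence and was scaled as inhibition, anchored at 0 by vehicle wells and at 1 by blank wells. Combination Emax is taken as the second-highest inhibition in the matrix, and Bliss excess as the observed combination effect less EA + EB − EA·EB, with EA and EB the single-agent effects.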

[2] = system: KYSE-70 (Esophageal Squamous Cell Carcinoma); assay: as above
Summary of the method: as §1

[3] = system: NCI-H810 (Non-Small Cell Lung Carcinoma); assay: as above
Summary of the method: as §1

[4] = system: CML-T1 (Chronic Myelogenous Leukemia); assay: as above
Summary of the method: as §1

[5] = system: NKM-1 (Acute Myeloid Leukemia); assay: as above
Summary of the method: as §1

[6] = system: FLO-1 (Esophageal Adenocarcinoma); assay: as above
Summary of the method: as §1

[7] = system: LAMA-84 (Chronic Myelogenous Leukemia); assay: as above
Summary of the method: as §1

[8] = system: EB-3 (Burkitt's Lymphoma); assay: as above
Summary of the method: as §1

[9] = system: HCC-44 (Lung Adenocarcinoma); assay: as above
Summary of the method: as §1

[10] = system: OV-90 (Ovarian Carcinoma); assay: as above
Summary of the method: as §1

[11] = system: SW684 (Other Solid Carcinomas); assay: as above
Summary of the method: as §1

[12] = system: COLO-684 (Endometrial Carcinoma); assay: as above
Summary of the method: as §1

[13] = system: PC-14 (Lung Adenocarcinoma); assay: as above
Summary of the method: as §1

[14] = system: RMG-I (Ovarian Carcinoma); assay: as above
Summary of the method: as §1

KYM-1 (Rhabdomyosarcoma) [15] = assay: as above
Summary of the method: as §1

[16] = system: NCI-H1755 (Lung Adenocarcinoma); assay: as above
Summary of the method: as §1

[17] = system: SK-MM-2 (Plasma Cell Myeloma); assay: as above
Summary of the method: as §1

[18] = system: LOUCY (T-Lymphoblastic Leukemia); assay: as above
Summary of the method: as §1

CHL-1 (Melanoma) [19] = assay: as above
Summary of the method: as §1

[20] = system: PANC-02-03 (Pancreatic Carcinoma); assay: as above
Summary of the method: as §1

[21] = system: Becker (Low Grade Glioma); assay: combination Emax (second highest fraction inhibited in the dose matrix, 72 h); higher = more inhibition; extreme values may be limits of the assay
Summary of the method: as §1

[22] = system: KYSE-70 (Esophageal Squamous Cell Carcinoma); assay: as above
Summary of the method: as §1

[23] = system: NCI-H810 (Non-Small Cell Lung Carcinoma); assay: as above
Summary of the method: as §1

[24] = system: CML-T1 (Chronic Myelogenous Leukemia); assay: as above
Summary of the method: as §1

[25] = system: NKM-1 (Acute Myeloid Leukemia); assay: as above
Summary of the method: as §1

[26] = system: FLO-1 (Esophageal Adenocarcinoma); assay: as above
Summary of the method: as §1

[27] = system: LAMA-84 (Chronic Myelogenous Leukemia); assay: as above
Summary of the method: as §1

[28] = system: EB-3 (Burkitt's Lymphoma); assay: as above
Summary of the method: as §1

[29] = system: HCC-44 (Lung Adenocarcinoma); assay: as above
Summary of the method: as §1

[30] = system: OV-90 (Ovarian Carcinoma); assay: as above
Summary of the method: as §1

[31] = system: SW684 (Other Solid Carcinomas); assay: as above
Summary of the method: as §1

[32] = system: COLO-684 (Endometrial Carcinoma); assay: as above
Summary of the method: as §1

[33] = system: PC-14 (Lung Adenocarcinoma); assay: as above
Summary of the method: as §1

[34] = system: RMG-I (Ovarian Carcinoma); assay: as above
Summary of the method: as §1

KYM-1 (Rhabdomyosarcoma) [35] = assay: as above
Summary of the method: as §1

[36] = system: NCI-H1755 (Lung Adenocarcinoma); assay: as above
Summary of the method: as §1

[37] = system: SK-MM-2 (Plasma Cell Myeloma); assay: as above
Summary of the method: as §1

[38] = system: LOUCY (T-Lymphoblastic Leukemia); assay: as above
Summary of the method: as §1

CHL-1 (Melanoma) [39] = assay: as above
Summary of the method: as §1

[40] = system: PANC-02-03 (Pancreatic Carcinoma); assay: as above
Summary of the method: as §1
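Wherever Bliss excess, mean over the matrix is given: after 72 h of two-drug dosing.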

SMILES | Bliss excess [1] | Bliss excess [2] | Bliss excess [3] | Bliss excess [4] | Bliss excess [5] | Bliss excess [6] | Bliss excess [7] | Bliss excess [8] | Bliss excess [9] | Bliss excess [10] | Bliss excess [11] | Bliss excess [12] | Bliss excess [13] | Bliss excess [14] | Bliss excess (KYM-1 (Rhabdomyosarcoma) [15]) | Bliss excess [16] | Bliss excess [17] | Bliss excess [18] | Bliss excess (CHL-1 (Melanoma) [19]) | Bliss excess [20] | combination Emax [21] | combination Emax [22] | combination Emax [23] | combination Emax [24] | combination Emax [25] | combination Emax [26] | combination Emax [27] | combination Emax [28] | combination Emax [29] | combination Emax [30] | combination Emax [31] | combination Emax [32] | combination Emax [33] | combination Emax [34] | combination Emax (KYM-1 (Rhabdomyosarcoma) [35]) | combination Emax [36] | combination Emax [37] | combination Emax [38] | combination Emax (CHL-1 (Melanoma) [39]) | combination Emax [40]
Cc1c2c(nn1C)CSCc1cc(n(C)n1)CSc1cc(c3ccccc3c1)OCCCc1c(C(=O)O)n(C)c3c-2c(Cl)ccc13 [AZD5991] + CC(=O)O[C@H]1C(=O)[C@@]2(C)[C@H]([C@H](OC(=O)c3ccccc3)[C@]3(O)C[C@H](OC(=O)[C@H](O)[C@@H](NC(=O)c4ccccc4)c4ccccc4)C(C)=C1C3(C)C)[C@]1(OC(C)=O)CO[C@@H]1C[C@@H]2O [Paclitaxel] (first compound max 1 µM, 7x7, partner max 3 µM) | 0.0068 | 0.0855 | 0.125 | -0.0139 | 0.0294 | -0.0172 | -0.0161 | -0.0558 | -0.0764 | 0.0575 | -0.0818 | 0.0057 | -0.0298 | -0.0514 | 0.0663 | -0.0385 | 0.0033 | -0.051 | 0.0482 | -0.0131 | 0.982 | 0.534 | 0.871 | 0.954 | 1 | 0.928 | 0.895 | 0.685 | 0.83 | 0.379 | 0.52 | 0.558 | 0.947 | 0.322 | 1 | 0.734 | 0.34 | 0.898 | 1 | 0.427
Cc1c2c(nn1C)CSCc1cc(n(C)n1)CSc1cc(c3ccccc3c1)OCCCc1c(C(=O)O)n(C)c3c-2c(Cl)ccc13 [AZD5991] + CS(=O)(=O)CCNCc1ccc(-c2ccc3ncnc(Nc4ccc(OCc5cccc(F)c5)c(Cl)c4)c3c2)o1 [Lapatinib] (first compound max 1 µM, 7x7, partner max 10 µM) | -0.0011 | -0.0329 | -0.0722 | 0.0228 | -0.0148 | -0.0454 | 0.0258 | -0.0068 | -0.0301 | -0.0817 | -0.116 | -0.114 | 0.0203 | 0.0088 | 0.0243 | -0.015 | -0.0011 | 0.0351 | 0.0766 | -0.0159 | 0.277 | 0.177 | 0.261 | 0.24 | 0.995 | 0.537 | 0.165 | 0.6 | 0.352 | 0.247 | 0.177 | 0.421 | 0.963 | 0.532 | 0.589 | 0.755 | 0.115 | 0.688 | 0.835 | 0.368
Cc1c2c(nn1C)CSCc1cc(n(C)n1)CSc1cc(c3ccccc3c1)OCCCc1c(C(=O)O)n(C)c3c-2c(Cl)ccc13 [AZD5991] + Nc1ccn([C@@H]2O[C@H](CO)[C@@H](O)C2(F)F)c(=O)n1 [Gemcitabine] (first compound max 1 µM, 7x7, partner max 0.3 µM) | -0.033 | -0.0423 | 0.0467 | -0.0219 | -0.0275 | -0.0134 | 0.0095 | 0.0273 | -0.0513 | -0.0251 | -0.0767 | -0.0376 | 0.0171 | -0.0592 | 0.0209 | 0.0224 | -0.0172 | 0.131 | 0.0685 | -0.053 | 0.567 | 0.141 | 0.597 | 0.991 | 1 | 0.823 | 0.939 | 0.377 | 0.598 | 0.505 | 0.253 | 0.573 | 0.692 | 0.367 | 1 | 0.435 | 0.351 | 0.774 | 0.785 | 0.366
C[C@@H]1COCCN1c1cc(C2([S@](C)(=N)=O)CC2)nc(-c2ccnc3[nH]ccc23)n1 [AZD6738] + Nc1ccn([C@@H]2O[C@H](CO)[C@@H](O)C2(F)F)c(=O)n1 [Gemcitabine] (first compound max 10 µM, 7x7, partner max 0.3 µM) | 0.0762 | -0.0006 | 0.0805 | 0.0987 | -0.0345 | 0.124 | 0.0674 | 0.007 | 0.0963 | -0.0129 | 0.0693 | -0.0731 | 0.0058 | -0.0514 | 0.0132 | 0.0444 | 0.114 | 0.0579 | 0.0858 | -0.0067 | 0.808 | 0.504 | 0.794 | 1 | 1 | 0.949 | 0.976 | 0.847 | 0.844 | 0.573 | 0.559 | 0.733 | 0.869 | 0.48 | 1 | 0.812 | 0.572 | 1 | 0.902 | 0.579
Cc1cc2ncnn2cc1Nc1ncc2c(n1)n(C1CCOCC1)c(=O)n2C [AZD7648] + COc1cc([C@@H]2c3cc4c(cc3[C@@H](O[C@@H]3O[C@@H]5CO[C@@H](C)O[C@H]5[C@H](O)[C@H]3O)[C@H]3COC(=O)[C@H]23)OCO4)cc(OC)c1O [Etoposide] (first compound max 10 µM, 7x7, partner max 10 µM) | 0.096 | -0.0437 | -0.079 | 0.0779 | 0.106 | 0.0863 | 0.154 | 0.0374 | 0.0009 | -0.0525 | -0.0208 | -0.0174 | 0.097 | 0.01 | 0.119 | 0.0418 | 0.0378 | 0.0421 | 0.0767 | 0.0386 | 0.748 | 0.168 | 0.598 | 1 | 0.976 | 0.85 | 0.948 | 0.942 | 0.809 | 0.399 | 0.428 | 0.497 | 0.757 | 0.386 | 0.927 | 0.486 | 0.437 | 0.968 | 0.82 | 0.378
C[C@@H](Nc1cc(F)cc(F)c1)c1cc(C(=O)N(C)C)cc2c(=O)cc(N3CCOCC3)oc12 [AZD8186] + C1CN(CCC1(C(=O)N[C@@H](CCO)C2=CC=C(C=C2)Cl)N)C3=NC=NC4=C3C=CN4 [AZD5363] (first compound max 10 µM, 7x7, partner max 10 µM) | 0.0295 | -0.0493 | -0.099 | -0.0629 | -0.0454 | -0.0114 | -0.0192 | -0.0203 | -0.0319 | -0.0556 | -0.0408 | -0.0839 | 0.0006 | -0.0317 | -0.0245 | -0.0436 | -0.0255 | 0.0819 | -0.0392 | -0.0364 | 0.646 | 0.233 | 0.17 | 0.53 | 0.615 | 0.43 | 0.198 | 0.324 | 0.609 | 0.208 | 0.572 | 0.615 | 0.399 | 0.401 | 0.4 | 0.642 | 0.202 | 0.494 | 0.433 | 0.237
